The record followed here is patent publication US20110070314A1 (priority 2009, published 2011).

In data set [1] the test system is U-87MG orthotopic glioblastoma. Conditions: mouse, in vivo.
Data set [2] deals with T98G cells. The data set is classed as cell-based, human.
For data set [3] the following is noted: mouse, in vivo.
The subject of data set [4] is U-87MG orthotopic glioblastoma. The settings on record: mouse, in vivo. The source holds these as a separate data set.
Data set [5] deals with U138 cells. The data set is classed as cell-based, human.
Data set [6] has as its system brain tumors. The settings on record: human, in vivo.
Data set [7] has as its system U373 cells. The data set is classed as cell-based, human.
Data set [8] concerns U-87MG cells. The data set is classed as cell-based, human.
The conditions of data set [9]: mouse, in vivo. The source holds these as a separate data set.

With sodium meta arsenite, the “Body weight difference between groups” value in data set [1] is “no significant difference”. For the same substance, in data set [1] (po, 1.25 mg/kg), the “Inhibition of tumor growth” value turned out to be 28% and the Tumor mass was found to be 40.2±12.3 mm^3. In addition, the “MRI imaging of tumor mass” value in data set [1] (po, 5 mg/kg) was “decrease of tumor mass”. Further, in data set [2], the “Anticancer effect (cell viability) vs control” value (from here on “Anticancer effect … vs control”) is recorded as “significant anticancer effects” and the “Dose dependence of anticancer effect” value was “dose-dependent anticancer effects”. For the same substance, in data set [3], the “Adverse effects following oral and IV administration” value is recorded as “No adverse effects were observed”; the “Clinical signs during testing” value is given as “No clinical signs were observed”. Further, in data set [4], the “Serum ALT and AST difference between the groups” value is reported as “no significant difference”. In addition, the Anticancer effect entry in data set [4] (po, 10 mg/kg) was “no anticancer effect”. In addition, in [5], the “Anticancer effect … vs control” value is on record as “significant anticancer effects” and the “Dose dependence of anticancer effect” value is given as “dose-dependent anticancer effects”. Besides, in [6], the “MRI finding on brain tumor” value is on record as “brain tumor was completely gone”; the Side effects result is reported as “Pt # 1 did not find any particular”; the “Time until pain lessened” value was “side effects, and within 5 days them”. Moreover, in data set [6] (iv), the “Effect on lung cancer” value is listed as “conditions appear to be stable” and the “Effect on tumor in the brain” value is “the tumor in the brain disappeared”. Moreover, in data set [7], the “Anticancer effect … vs control” value is recorded as “significant anticancer effects” and the “Dose dependence of anticancer effect” value was “dose-dependent anticancer effects”. Further, in data set [8], the “Anticancer effect … vs control” value was “significant anticancer effects” and the “Dose dependence of anticancer effect” value is given as “dose-dependent anticancer effects”. Further, in data set [9], the “Crossing of the blood brain barrier” value is given as “can readily cross the blood brain barrier”.
